For series [1], the system named is Staphylococcus aureus Smith ATCC 13709. Briefly: In vivo activity on mouse systemic infection, S. aureus (ED50). Particulars: ATCC13709, sc, 120 h, mouse systemic infection (female CD1), subcutaneous, treatment 120 min after infection, survival on day 5, read-out: ED50 (cumulative subcutaneous dose). As to the method: (§1) Invivo activity of Compound of formula (I), R =
(§2) CH2 SO2 NHCN (Example 1), in comparison with FCE 22101*,
(§3) on mouse^a systemic infections.
(§4) ^a) Female mice CD1 (Charles River, Italy), weighing 22 ± 2 g were
(§5) used, experimentally infected by an introperitoneal route. Eight animals
(§6) were used at each of the concentrations of compound tested, which were
(§7) administered subcutaneously (0.1 ml/10 g weight). The mortality was
(§8) recorded daily and the number of animals surviving on day 5 was used to
(§9) calculate the cumulative effective dose (ED50).
(§10) ^b) Cumulative subcutaneous dose.
(§11) ^c) Infecting organisms were: S. aureus, Staphylococcus aureus Smith
(§12) ATCC 13709; E. Coli, Escherichia coli G (clinical isolate); S. faecalis,
(§13) ^d) Minutes after infection.

Series [2] relates to Escherichia coli G (clinical isolate). In words: In vivo activity on mouse systemic infection, E. coli (ED50). The following applies: sc, 120 h, mouse systemic infection (female CD1), subcutaneous, treatment 30-90-360 min after infection, survival on day 5, read-out: ED50 (cumulative subcutaneous dose). As to the method:
as §1, §2, §3, §4, §5, §6, §7, §8, §9, §10, §11, §12, §13

The test system of series [3] is Streptococcus faecalis 3817 (clinical isolate). In words: In vivo activity on mouse systemic infection, S. faecalis (ED50). The following applies: Enterococcus faecalis, sc, 120 h, mouse systemic infection (female CD1), subcutaneous, treatment 60-180 min after infection, survival on day 5, read-out: ED50 (cumulative subcutaneous dose). The procedure: as §1, §2, §3, §4, §5, §6, §7, §8, §9, §10, §11, §12
Streptococcus faecalis 3817 (clinical isolate).
as §13

The nature of series [4]: Acute toxicity in mice. The following applies: in vivo; mouse, I.D. (so in the source).

SMILES strings stand for the structures.

For `CC(O)C1C(=O)N2C(C(=O)O)=C(c3ccc(C[n+]4ccc(CS(=O)(=O)[N-]C#N)cc4)cc3)SC12` [Example 1, (5R,6S)-6-/1 (R)-Hydroxyethyl/-2-/4-/4-(N-cyanosulfamoylato) methyl-1-pyridinio/methylphenyl/penem-3-carboxylic acid], the ED50 in series [1] was 0.16 mg/kg; in series [2] it was 0.65 mg/kg; in series [3] it was 8.5 mg/kg. Also, in series [4], the LD50 is > 3000 mg/kg.

As for `CC(O)C1C(=O)N2C(C(=O)O)=C(COC(N)=O)SC12` (stereo not shown) [FCE 22101, reference compound], the median effective dose (ED50) in series [1] was found to be 0.7 mg/kg; in series [2], 10 mg/kg; in series [3] it was 80 mg/kg.
